Experimental data as given in US20210255193A1, “LYSINE REACTIVE PROBES AND USES THEREOF” (The Scripps Research Institute, priority 2017, published 2021).
Values belong to the compound of their own block, whether it stands above or below them.

Key:
Experiment in all cases: competitive isoTOP-ABPP
[1] = target: T1, GABARAPL2 Gamma-aminobutyric acid receptor-associated protei (Homo sapiens, UniProt P60520); format: binding
T1 construct: isoTOP-ABPP experiments performed in cell lysates (in vitro); endogenous in cells; host or cells: soluble proteome of human cancer cell lines (MDA-MB-231, Ramos, Jurkat)
T1 sequence (P60520 1-116 limits assumed): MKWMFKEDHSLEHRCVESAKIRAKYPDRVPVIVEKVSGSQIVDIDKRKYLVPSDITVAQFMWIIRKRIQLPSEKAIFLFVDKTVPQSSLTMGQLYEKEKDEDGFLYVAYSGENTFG
Procedure, shortened: (§1)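 Fragments at 50 μM (activated esters) or 100 μM (guanidinylating agents) were incubated with 0.5 ml lysate before probe labeling. After 0.1 mM STP-alkyne for 1 h, samples were clicked to isotopically distinct TEV tags, and R taken as DMSO-over-compound MS1 peak-area ratio.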

[2] = target: T2, SRP54 Signal recognition particle 54 kDa protein (Homo sapiens, UniProt P61011); format: binding; design: key to isoTOP-ABPP reactivity ratio at lysine P61011_K81: R = MS1 peak area ratio, DMSO (heavy) / compound-treated (light); capped at 20
T2 construct: isoTOP-ABPP experiments performed in cell lysates (in vitro); endogenous in cells; host or cells: soluble proteome of human cancer cell lines (MDA-MB-231, Ramos, Jurkat)
T2 sequence (P61011 whole entry): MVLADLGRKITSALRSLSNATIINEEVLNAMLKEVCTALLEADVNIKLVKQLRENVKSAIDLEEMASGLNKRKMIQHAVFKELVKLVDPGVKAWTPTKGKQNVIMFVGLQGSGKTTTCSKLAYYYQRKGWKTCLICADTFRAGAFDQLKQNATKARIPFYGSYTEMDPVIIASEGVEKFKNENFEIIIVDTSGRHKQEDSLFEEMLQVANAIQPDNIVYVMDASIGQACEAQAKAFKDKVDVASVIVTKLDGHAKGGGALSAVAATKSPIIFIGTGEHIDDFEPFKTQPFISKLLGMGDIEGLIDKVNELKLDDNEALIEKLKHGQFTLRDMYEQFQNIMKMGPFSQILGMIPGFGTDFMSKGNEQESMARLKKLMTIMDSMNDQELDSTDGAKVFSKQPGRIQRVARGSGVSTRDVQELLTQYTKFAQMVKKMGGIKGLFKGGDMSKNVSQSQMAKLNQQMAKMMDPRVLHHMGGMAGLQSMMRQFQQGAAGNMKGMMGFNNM
Experimental: (§2) In vitro covalent fragment treatment for isoTOP-ABPP. All compounds were made up as solutions in DMSO (100×) and were used at a final concentration of 50 μM for activated esters and 100 μM for guanidinylating agents. For each profiling sample, 0.5 ml of lysate was treated with 5 μl of the 100× compound stock solution or 5 μl of DMSO. Samples were treated with activated esters for
(§3) STP-alkyne labeling and click chemistry. For concentration-dependent reactivity measurements by isoTOP-ABPP, 0.5 ml proteome aliquots were treated at ambient temperature with 1 mM STP-alkyne 1 (5 μl of 100 mM stock in DMSO) and 0.1 mM STP alkyne 1 (5 μl of 10 mM stock in DMSO), respectively. For competitive isoTOP-ABPP, after in vitro fragment treatment (detailed above), the samples were labeled for 1 h at ambient temperature with 0.1 mM STP-alkyne 1 (5 μl of 10 mM stock in DMSO). Samples were conjugated by copper-mediated azide-alkyne cycloaddition (CuAAC) to either the light (1 mM STP-alkyne or fragment treated) or heavy (0.1 mM STP-alkyne or DMSO treated) TEV tags (10 μl of 5 mM stocks in DMSO, final concentration=100 μM) using tris(2-carboxyethyl)phosphine hydrochloride
(§4) R value calculation and processing. The ratios of light and heavy MS1 peaks for each unique peptide were quantified with a CIMAGE software using default parameters (3 MS1 acquisitions per peak and signal to noise threshold set to 2.5). For reactivity measurements by isoTOP-ABPP, the R value was calculated from the ratio of MS1 peak areas, comparing the 1 mM STP alkyne sample (light TEV tag) with the 0.1 mM STP alkyne sample (heavy TEV tag). For competitive isoTOP-ABPP, the R value was calculated from the ratio of MS1 peak areas, comparing the DMSO treated sample (heavy TEV tag) with the compound treated sample (light TEV tag). […] Ratios for unique peptide entries are calculated for each experiment; overlapping peptides with the same modified lysine (for example, different charge states, MudPIT chromatographic steps or tryptic termini) are grouped together and the median ratio is reported as the final ratio (R). The peptide ratios reported by CIMAGE were further filtered to ensure the removal or correction of low-quality ratios in each individual data set. The quality filters applied were the following: removal of half tryptic peptides; for ratios with high standard deviations from the median (90% of the median or above) the lowest ratio was taken instead of the median; removal of peptides with R=20 and only a single MS2 event triggered during the elution of the parent ion; manual annotation of all the peptides with ratios of 20, removing any peptides with low quality elution profiles that remained after the previous curation steps (only done for competitive isoTOP-ABPP).
(§5) Cross-data processing for fragment screening. For compound treated samples, biological replicates of the same condition were averaged, if the standard deviation was below 60% of the mean; otherwise, for lysines with at least one R value <4 for a particular compound, the lowest value of the ratio set was taken. For lysines, where all R values for a particular compound were ≥4, the average was reported. For peptides containing several possible modified lysines, the lysine with the highest number of quantification events was used for analysis and the remaining, redundant peptides were reported as alternative modification sites. Peptides included in the aggregate dataset (those used for further bioinformatics and statistical analyses) were required to have been quantified in 2 experiments for competitive isoTOP-ABPP. Lysines were categorized as liganded, if they had at least one ratio R≥4 (hit fragments). For liganded lysines with R=20 for all liganding events, lysines were required to have been quantified with R=20 in two separate experiments and were further required to have been quantified with R<20 in one additional experiment.

[3] = target: T3, NONO Non-POU domain-containing octamer-binding protein (Homo sapiens, UniProt Q15233)
T3 construct: isoTOP-ABPP experiments performed in cell lysates (in vitro); endogenous in cells; host or cells: soluble proteome of human cancer cell lines (MDA-MB-231; Ramos and Jurkat also prepared)
T3 sequence (Q15233 1-471): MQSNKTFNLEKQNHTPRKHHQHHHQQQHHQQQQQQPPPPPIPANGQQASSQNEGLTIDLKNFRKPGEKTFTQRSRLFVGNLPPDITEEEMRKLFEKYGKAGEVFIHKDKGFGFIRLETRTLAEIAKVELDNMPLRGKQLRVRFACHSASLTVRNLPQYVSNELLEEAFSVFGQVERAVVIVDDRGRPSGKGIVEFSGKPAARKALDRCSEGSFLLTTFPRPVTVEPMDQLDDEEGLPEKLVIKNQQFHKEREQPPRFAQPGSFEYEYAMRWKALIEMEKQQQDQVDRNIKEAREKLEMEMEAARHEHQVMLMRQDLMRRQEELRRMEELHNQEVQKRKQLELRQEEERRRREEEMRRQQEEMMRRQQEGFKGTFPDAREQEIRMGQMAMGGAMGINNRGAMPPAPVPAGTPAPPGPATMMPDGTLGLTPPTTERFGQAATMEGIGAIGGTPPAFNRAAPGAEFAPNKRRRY
Procedure, shortened: as §1

[4] = target: T4, NUDT2 Bis(5-nucleosyl)-tetraphosphatase (Homo sapiens, UniProt P50583); format: binding; design: key to isoTOP-ABPP reactivity ratio at lysine P50583_K89: R = MS1 peak area ratio, DMSO (heavy) / compound-treated (light); conditions: for isoTOP-ABPP ratio, lysine P50583_K89: possible other lysine P50583_K87
T4 construct: isoTOP-ABPP experiments performed in cell lysates (in vitro); endogenous in cells
T4 sequence (P50583 whole entry): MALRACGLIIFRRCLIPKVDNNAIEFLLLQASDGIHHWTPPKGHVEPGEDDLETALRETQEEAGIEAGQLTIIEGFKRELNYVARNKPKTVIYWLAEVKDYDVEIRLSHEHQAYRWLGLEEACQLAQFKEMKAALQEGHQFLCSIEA
Experimental: as §2, §3, §4, §5

[5] = target: T5, ECH1 Delta(3,5)-Delta(2,4)-dienoyl-CoA isomerase, mitochondrial (Homo sapiens, UniProt Q13011); format: binding; design: key to isoTOP-ABPP reactivity ratio at lysine Q13011_K112: R = MS1 peak area ratio, DMSO (heavy) / compound-treated (light); capped at 20
T5 construct: isoTOP-ABPP experiments performed in cell lysates (in vitro); endogenous in cells; host or cells: soluble proteome of human cancer cell lines (MDA-MB-231, Ramos, Jurkat)
T5 sequence (Q13011 34-328): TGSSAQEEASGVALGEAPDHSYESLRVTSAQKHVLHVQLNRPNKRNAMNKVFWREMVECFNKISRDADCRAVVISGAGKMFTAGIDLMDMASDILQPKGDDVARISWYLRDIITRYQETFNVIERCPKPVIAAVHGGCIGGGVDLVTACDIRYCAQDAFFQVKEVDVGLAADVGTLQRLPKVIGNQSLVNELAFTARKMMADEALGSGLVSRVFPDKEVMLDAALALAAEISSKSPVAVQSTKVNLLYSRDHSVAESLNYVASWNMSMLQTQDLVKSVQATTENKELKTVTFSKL
Experimental: as §2, §3, §4, §5

Compound: Cn1cc(CC(=O)Oc2ccc([N+](=O)[O-])cc2[N+](=O)[O-])c2ccccc21 [fragment 32, 2,4-Dinitrophenyl 2-(1-methyl-1H-indol-3-yl)acetate]
isoTOP-ABPP reactivity ratio at lysine P60520_K46 ([1]; 50 uM, 231 sol, in vitro): 1.1
isoTOP-ABPP reactivity ratio at lysine P61011_K81 ([2]; 50 uM, 231 sol, in vitro): 20.0
isoTOP-ABPP reactivity ratio at lysine Q15233_K467 ([3]; 50 uM, 231 sol, in vitro): 1.2
isoTOP-ABPP reactivity ratio at lysine P50583_K89 ([4]; 50 uM, 231 sol, in vitro): 3.7
isoTOP-ABPP reactivity ratio at lysine Q13011_K112 ([5]; 50 uM, 231 sol, in vitro): 1.0

isoTOP-ABPP ratio, lysine P60520_K46 ([1]; 100 uM_231_sol_in vitro): 1.9
isoTOP-ABPP ratio, lysine P61011_K81 ([2]; 100 uM_231_sol_in vitro): 1.0
isoTOP-ABPP ratio, lysine Q15233_K467 ([3]; 100 uM_231_sol_in vitro): 4.9
isoTOP-ABPP ratio, lysine P50583_K89 ([4]; 100 uM_231_sol_in vitro): 20.0
reaction with K89 by isoTOP-ABPP ([4]; NUDT2 K89): preferentially reacting
isoTOP-ABPP ratio, lysine Q13011_K112 ([5]; 100 uM_231_sol_in vitro): 1.1
Compound: COC(=O)NC(=NC(=O)OCC1c2ccccc2-c2ccccc21)n1cccn1 [fragment 49, N-Methoxycarbonyl-N′-9-fluorenylmethoxycarbonyl-pyrazole-1-carboxamidine]

R value (DMSO/fragment) for probe 1 labeling ([1]; P60520_K46, 50 uM, 231 sol, in vitro): 0.9
R value (DMSO/fragment) for probe 1 labeling ([2]; P61011_K81, 50 uM, 231 sol, in vitro): 1.0
R value (DMSO/fragment) for probe 1 labeling ([3]; Q15233_K467, 50 uM, 231 sol, in vitro): 1.2
R value (DMSO/fragment) for probe 1 labeling ([4]; P50583_K89, 50 uM, 231 sol, in vitro): 0.9
R value (DMSO/fragment) for probe 1 labeling ([5]; Q13011_K112, 50 uM, 231 sol, in vitro): 1.4
Compound: O=C(Oc1c(F)c(F)c(F)c(F)c1F)C(c1ccccc1)c1ccccc1 [fragment 20, Pentafluorophenyl 2,2-diphenylacetate]

Compound: O=C(Oc1ccc([N+](=O)[O-])cc1[N+](=O)[O-])c1cc(C(F)(F)F)cc(C(F)(F)F)c1 [fragment 31, 2,4-Dinitrophenyl 3,5-bis(trifluoromethyl)benzoate]
isoTOP-ABPP reactivity ratio at lysine P60520_K46 ([1]; 50 uM, 231 sol, in vitro): 1.2
isoTOP-ABPP reactivity ratio at lysine P61011_K81 ([2]; 50 uM, 231 sol, in vitro): 0.9
isoTOP-ABPP reactivity ratio at lysine Q15233_K467 ([3]; 50 uM, 231 sol, in vitro): 1.3
isoTOP-ABPP reactivity ratio at lysine P50583_K89 ([4]; 50 uM, 231 sol, in vitro): 0.8
isoTOP-ABPP reactivity ratio at lysine Q13011_K112 ([5]; 50 uM, 231 sol, in vitro): 1.2

Compound: N#Cc1ccc(C(=O)Oc2ccc([N+](=O)[O-])cc2[N+](=O)[O-])cc1 [fragment 44, 2,4-Dinitrophenyl 4-cyanobenzoate]
isoTOP-ABPP ratio, lysine P60520_K46 ([1]; 50 uM_231_sol_in vitro): 0.9
isoTOP-ABPP ratio, lysine P61011_K81 ([2]; 50 uM_231_sol_in vitro): 1.0
isoTOP-ABPP ratio, lysine Q15233_K467 ([3]; 50 uM_231_sol_in vitro): 0.9
isoTOP-ABPP ratio, lysine P50583_K89 ([4]; 50 uM_231_sol_in vitro): 0.9
isoTOP-ABPP ratio, lysine Q13011_K112 ([5]; 50 uM_231_sol_in vitro): 0.9

Compound: O=C(Oc1ccc([N+](=O)[O-])cc1[N+](=O)[O-])c1ccc(-c2ccccc2)cc1 [fragment 37, 2,4-Dinitrophenyl [1,1′-biphenyl]-4-carboxylate]
isoTOP-ABPP ratio (R) at liganded lysine P60520_K46 ([1]; 50 uM, in vitro, sol, 231): 0.8
isoTOP-ABPP ratio (R) at liganded lysine P61011_K81 ([2]; 50 uM, in vitro, sol, 231): 0.9
isoTOP-ABPP ratio (R) at liganded lysine Q15233_K467 ([3]; 50 uM, in vitro, sol, 231): 0.8
isoTOP-ABPP ratio (R) at liganded lysine P50583_K89 ([4]; 50 uM, in vitro, sol, 231): 1.4
isoTOP-ABPP ratio (R) at liganded lysine Q13011_K112 ([5]; 50 uM, in vitro, sol, 231): 0.9

Compound: COc1cc(CCC(=O)Oc2ccc([N+](=O)[O-])cc2[N+](=O)[O-])cc(OC)c1OC [fragment 33, 2,4-Dinitrophenyl 3-(3,4,5-trimethoxyphenyl)propanoate]
isoTOP-ABPP reactivity ratio at lysine P60520_K46 ([1]; 50 uM, 231 sol, in vitro): 1.2
isoTOP-ABPP reactivity ratio at lysine P61011_K81 ([2]; 50 uM, 231 sol, in vitro): 1.3
isoTOP-ABPP reactivity ratio at lysine Q15233_K467 ([3]; 50 uM, 231 sol, in vitro): 3.7
isoTOP-ABPP reactivity ratio at lysine P50583_K89 ([4]; 50 uM, 231 sol, in vitro): 1.9
isoTOP-ABPP reactivity ratio at lysine Q13011_K112 ([5]; 50 uM, 231 sol, in vitro): 0.9
